# Reference: patent US20230148144A1, “Cell” (AUTOLUS LIMITED, priority 2020, published 2023)
# Tested on: CAR-T cells
# Experiment: Effect of Tacrolimus on proliferation of CAR-expressing cells in co-culture
# Assay type: cell-based
# Conditions: 20 ng/ml Tacrolimus
# Method: Cells were co-cultures for 96 hours at a 1:4 E:T ratio in the presence or absence of 20 ng/ml of Tacrolimus. Transduced effector cells were identified based on their expression of RQR8 and their proliferation analysed using cell-trace violet (CTV) dilution. […] In a similar study, cells transduced to express either TRBC2 CAR alone or TRBC2 CAR in combination with a calcineurin mutant (CnB30) were co-cultured for 4 days with TRBC2+ positive targets in the presence or absence of 20 ng/ml of Tacrolimus. […] This was true for cells expressing TRBC2 CAR alone or co-expressing TRBC2 CAR in combination with the calcineurin mutant.
smiles,measurement,setting,value
C=CC[C@@H]1/C=C(\C)C[C@H](C)C[C@H](OC)[C@H]2O[C@@](O)(C(=O)C(=O)N3CCCC[C@H]3C(=O)O[C@H](/C(C)=C/[C@@H]3CC[C@@H](O)[C@H](OC)C3)[C@H](C)[C@@H](O)CC1=O)[C@H](C)C[C@@H]2OC [Tacrolimus],proliferation of cells expressing TRBC2 CAR alone,"4 days co-culture with TRBC2+ targets, FIG. 22",inhibits proliferation
same,proliferation of CAR-T cells,"96 h co-culture, FIG. 16B vs FIG. 17B",inhibited
